The values that follow come from BindingDB's records for doi:10.1016/j.bmc.2008.05.048 (University of Canterbury, 2008).

For the assay, the target named is T1, Calpain-2 catalytic subunit (Ovis aries, UniProt A8IF71).
T1 sequence (A8IF71 whole entry): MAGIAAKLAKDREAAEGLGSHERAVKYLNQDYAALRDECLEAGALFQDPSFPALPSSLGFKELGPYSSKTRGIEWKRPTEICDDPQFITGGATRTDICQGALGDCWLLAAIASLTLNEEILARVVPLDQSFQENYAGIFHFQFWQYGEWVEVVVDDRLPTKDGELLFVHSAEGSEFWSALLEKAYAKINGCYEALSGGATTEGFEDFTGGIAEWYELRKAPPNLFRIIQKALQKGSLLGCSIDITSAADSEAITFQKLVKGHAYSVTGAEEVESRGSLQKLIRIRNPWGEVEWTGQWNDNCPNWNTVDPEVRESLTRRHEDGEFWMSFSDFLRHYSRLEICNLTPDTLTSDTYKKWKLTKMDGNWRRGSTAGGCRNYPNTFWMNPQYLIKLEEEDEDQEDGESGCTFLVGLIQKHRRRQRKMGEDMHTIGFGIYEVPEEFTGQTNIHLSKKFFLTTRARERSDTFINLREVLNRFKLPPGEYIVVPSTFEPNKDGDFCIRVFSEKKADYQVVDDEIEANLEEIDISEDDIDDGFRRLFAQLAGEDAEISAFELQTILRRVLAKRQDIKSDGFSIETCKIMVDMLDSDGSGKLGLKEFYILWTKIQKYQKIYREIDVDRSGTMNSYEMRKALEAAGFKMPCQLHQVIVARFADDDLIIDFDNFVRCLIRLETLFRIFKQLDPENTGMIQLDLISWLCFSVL
The assay is described as follows: BODIPY Fluorescent Microplate Assay. The following applies: pH 7.5; 25 °C. As to the method: Calpain inhibition assays were performed in 96-well black plates. The reaction was initiated by the addition of substrate solution. The progress of the reaction was followed for 10 min in a (BMG) Fluorostar with excitation at 485 nm and emission at 530 nm. The percentage inhibition was determined as […]. The reported IC50 values are the average of triplicate determinations.

For orientation: IC50 means the concentration that inhibits the measured activity by half. A higher IC50 goes with lower potency. As for `CC(C)C[C@@H](C=O)NC(=O)[C@@H](NC(=O)c1cc(C=O)c[nH]1)C(C)C` [(2S)-2-[(4-formyl-1H-pyrrol-2-yl)formamido]-3-methyl-N-[(2S)-4-methyl-1-oxopentan-2-yl]butanamide], 100 nM corresponded to half-maximal inhibition (IC50).
In the case of `CC(C)C[C@@H](C=O)NC(=O)[C@@H](NC(=O)c1ccc(C=O)o1)C(C)C` [(2S)-2-[(5-formylfuran-2-yl)formamido]-3-methyl-N-[(2S)-4-methyl-1-oxopentan-2-yl]butanamide] it was 100 nM.
On to `CC(C)C[C@@H](C=O)NC(=O)[C@@H](NC(=O)c1cccs1)C(C)C` [(2S)-3-methyl-N-[(2S)-4-methyl-1-oxopentan-2-yl]-2-(thiophen-2-ylformamido)butanamide], for which the IC50 turned out to be 100 nM.
